# Measured values as given in PubChem BioAssay (NCI).
#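 Briefly, cells in 96-well plates were exposed to five compound concentrations for 48 h, and endpoints were estimated by linear interpolation. The concentration for 50% growth inhibition is given as GI50. TGI: concentration producing complete growth inhibition.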
# Key:
# Test in all cases: growth of human tumour cells (NCI), 48 h
# [1] = system: NCI-H226 lung
# [2] = system: HCT-116 colon
# [3] = system: SF-268 CNS
# [4] = system: 786-0 renal
# [5] = system: SK-MEL-28 melanoma
# [6] = system: UO-31 renal
# [7] = system: OVCAR-8 ovarian
# [8] = system: RPMI-8226 leukemia
# [9] = system: SK-MEL-5 melanoma
# [10] = system: KM12 colon
# [11] = system: T-47D breast
# [12] = system: RXF 393 renal
# [13] = system: IGROV1 ovarian
# [14] = system: SNB-19 CNS
# [15] = system: U251 CNS
# [16] = system: SK-OV-3 ovarian
# [17] = system: NCI-H23 lung
# [18] = system: OVCAR-3 ovarian
# [19] = system: M14 melanoma
# [20] = system: BT-549 breast
# [21] = system: HOP-92 NSCLC
# [22] = system: ACHN renal
# [23] = system: HOP-62 NSCLC
# [24] = system: K-562 leukemia
# [25] = system: HL-60(TB) leukemia
# [26] = system: UACC-257 melanoma
# [27] = system: OVCAR-5 ovarian
# [28] = system: A549 NSCLC
# [29] = system: SF-295 CNS
# [30] = system: HCC-2998 colon
# [31] = system: NCI-H460 lung
# [32] = system: OVCAR-4 ovarian
# [33] = system: MALME-3M melanoma
# [34] = system: SNB-75 CNS
# [35] = system: SK-MEL-2 melanoma
# [36] = system: NCI/ADR-RES ovarian
# [37] = system: DU-145 prostate
# [38] = system: TK-10 renal
# [39] = system: HT29 colon
# [40] = system: SR leukemia
# [41] = system: A498 renal
# [42] = system: UACC-62 melanoma
# [43] = system: MDA-MB-435
# [44] = system: NCI-H522 lung
# [45] = system: COLO 205 colon
# [46] = system: HCT-15 colon
# [47] = system: MDA-MB-231 breast
# [48] = system: SW-620 colon
# [49] = system: MCF7 breast
# [50] = system: HS 578T breast
# [51] = system: CAKI-1 renal
# [52] = system: SF-539 CNS
# [53] = system: PC-3 prostate
# [54] = system: SN12C renal
# [55] = system: LOX IMVI melanoma
structure (smiles),measurement,setting,value
Cn1c(=O)c(Oc2cccc(F)c2)cc2cnc(NC3CCOCC3)nc21,GI50,[1],> 25 µM
same,TGI,[1],> 25 µM
same,GI50,[2],> 25 µM
same,TGI,[2],> 25 µM
same,GI50,[3],> 25 µM
same,TGI,[3],> 25 µM
same,GI50,[4],> 25 µM
same,TGI,[4],> 25 µM
same,GI50,[5],> 25 µM
same,TGI,[5],> 25 µM
same,GI50,[6],> 8.3 µM
same,TGI,[6],> 13 µM
same,GI50,[7],> 25 µM
same,TGI,[7],> 25 µM
same,GI50,[8],> 25 µM
same,TGI,[8],> 25 µM
same,GI50,[9],> 25 µM
same,TGI,[9],> 25 µM
same,GI50,[10],> 25 µM
same,TGI,[10],> 25 µM
same,GI50,[11],> 25 µM
same,TGI,[11],> 25 µM
same,GI50,[12],> 25 µM
same,TGI,[12],> 25 µM
same,GI50,[13],24.8 µM
same,TGI,[13],> 25 µM
same,GI50,[14],> 25 µM
same,TGI,[14],> 25 µM
same,GI50,[15],> 25 µM
same,TGI,[15],> 25 µM
same,GI50,[16],> 25 µM
same,TGI,[16],> 25 µM
same,GI50,[17],> 25 µM
same,TGI,[17],> 25 µM
same,GI50,[18],> 25 µM
same,TGI,[18],> 25 µM
same,GI50,[19],> 25 µM
same,TGI,[19],> 25 µM
same,GI50,[20],> 25 µM
same,TGI,[20],> 25 µM
same,GI50,[21],4.47 µM
same,TGI,[21],24.5 µM
same,GI50,[22],> 25 µM
same,TGI,[22],> 25 µM
same,GI50,[23],> 25 µM
same,TGI,[23],> 25 µM
same,GI50,[24],> 25 µM
same,TGI,[24],> 25 µM
same,GI50,[25],> 25 µM
same,TGI,[25],> 25 µM
same,GI50,[26],> 25 µM
same,TGI,[26],> 25 µM
same,GI50,[27],> 25 µM
same,TGI,[27],> 25 µM
same,GI50,[28],> 25 µM
same,TGI,[28],> 25 µM
same,GI50,[29],> 25 µM
same,TGI,[29],> 25 µM
same,GI50,[30],> 25 µM
same,TGI,[30],> 25 µM
same,GI50,[31],> 25 µM
same,TGI,[31],> 25 µM
same,GI50,[32],> 22.6 µM
same,TGI,[32],> 25 µM
same,GI50,[33],> 25 µM
same,TGI,[33],> 25 µM
same,GI50,[34],> 6.38 µM
same,TGI,[34],> 25 µM
same,GI50,[35],> 25 µM
same,TGI,[35],> 25 µM
same,GI50,[36],> 25 µM
same,TGI,[36],> 25 µM
same,GI50,[37],> 25 µM
same,TGI,[37],> 25 µM
same,GI50,[38],> 22 µM
same,TGI,[38],> 25 µM
same,GI50,[39],> 25 µM
same,TGI,[39],> 25 µM
same,GI50,[40],> 25 µM
same,TGI,[40],> 25 µM
same,GI50,[41],8.11 µM
same,TGI,[41],> 25 µM
same,GI50,[42],> 25 µM
same,TGI,[42],> 25 µM
same,GI50,[43],> 25 µM
same,TGI,[43],> 25 µM
same,GI50,[44],> 25 µM
same,TGI,[44],> 25 µM
same,GI50,[45],> 25 µM
same,TGI,[45],> 25 µM
same,GI50,[46],> 25 µM
same,TGI,[46],> 25 µM
same,GI50,[47],> 25 µM
same,TGI,[47],> 25 µM
same,GI50,[48],> 25 µM
same,TGI,[48],> 25 µM
same,GI50,[49],> 25 µM
same,TGI,[49],> 25 µM
same,GI50,[50],> 25 µM
same,TGI,[50],> 25 µM
same,GI50,[51],> 22.4 µM
same,TGI,[51],> 25 µM
same,GI50,[52],> 25 µM
same,TGI,[52],> 25 µM
same,GI50,[53],> 25 µM
same,TGI,[53],> 25 µM
same,GI50,[54],> 25 µM
same,TGI,[54],> 25 µM
same,GI50,[55],> 25 µM
same,TGI,[55],> 25 µM
